# According to patent US6472348B1, “Pyridone derivatives and herbicides” (Kumiai Chemical Industry Co., Ltd., priority 1996, dated 2002):
# Test system: pale smartweed (Po)
# Assay: Test Example 9: crop plant selectivity by upland field foliage treatment (wheat), herbicidal effects
# Format: in vivo
# Parameters: scale not given here
# Conditions: dose 1.6 g ai/10a, 14th day after treatment
# Method in brief: (§1)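 Read-out: weed control and wheat injury, rated by a defined scoring standard 14 days after foliar application.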
row,SMILES,Herbicidal effects Po
1,CC(C)OCc1cc2c(-c3ccc(C(F)(F)F)n(C)c3=O)c(F)cc(Cl)c2o1 [Compound 4-33],5

# Test system: common lambsquarters (Ch)
# Assay: as above
# Format: in vivo
# Parameters: scale not given here
# Conditions: dose 1.6 g ai/10a, 14th day after treatment
# Method in brief: as §1
row,SMILES,Herbicidal effects Ch
1,CC(C)OCc1cc2c(-c3ccc(C(F)(F)F)n(C)c3=O)c(F)cc(Cl)c2o1 [Compound 4-33],5

# Test system: China jute (Ab)
# Assay: as above
# Format: in vivo
# Parameters: scale not given here
# Conditions: dose 1.6 g ai/10a, 14th day after treatment
# Method in brief: as §1
row,SMILES,Herbicidal effects Ab
1,CC(C)OCc1cc2c(-c3ccc(C(F)(F)F)n(C)c3=O)c(F)cc(Cl)c2o1 [Compound 4-33],5

# Test system: slender amaranth (Am)
# Assay: as above
# Format: in vivo
# Parameters: scale not given here
# Conditions: dose 1.6 g ai/10a, 14th day after treatment
# Method in brief: as §1
row,SMILES,Herbicidal effects Am
1,CC(C)OCc1cc2c(-c3ccc(C(F)(F)F)n(C)c3=O)c(F)cc(Cl)c2o1 [Compound 4-33],5

# Test system: barnyardgrass (Ec)
# Assay: Test Example 1: herbicidal effects by paddy field soil treatment;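 also: grade of growth control; 5 = at least 90%; 4 = 70 to 90%; 3 = 50 to 70%; 2 = 30 to 50%; 1 = 10 to 30%; 0 = under 10%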
# Format: in vivo
# Conditions: 100 g of the active ingredient per 10 ares, 21st day after the application, index 0-5 of Table 47
# Method in brief: (§2)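 Flooded paddy-soil pots (3 cm water) sown after puddling/leveling; treatment 100 g a.i./10 ares; greenhouse culture; herbicidal effect rated visually on a scoring scale at 21 d post-application.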
row,SMILES,Herbicidal effects Ec
1,CC(C)OCc1cc2c(-c3ccc(C(F)(F)F)n(C)c3=O)c(F)cc(Cl)c2o1 [Compound 4-33],5

# Test system: bulrush (Sc)
# Assay: as above
# Format: in vivo
# Conditions: 100 g of the active ingredient per 10 ares, 21st day after the application, index 0-5 of Table 47
# Method in brief: as §2
row,SMILES,Herbicidal effects Sc
1,CC(C)OCc1cc2c(-c3ccc(C(F)(F)F)n(C)c3=O)c(F)cc(Cl)c2o1 [Compound 4-33],5

# Test system: monochoria (Mo)
# Assay: as above
# Format: in vivo
# Conditions: 100 g of the active ingredient per 10 ares, 21st day after the application, index 0-5 of Table 47
# Method in brief: as §2
row,SMILES,Herbicidal effects Mo
1,CC(C)OCc1cc2c(-c3ccc(C(F)(F)F)n(C)c3=O)c(F)cc(Cl)c2o1 [Compound 4-33],5

# Test system: barnyardgrass (Ec)
# Assay: Test Example 3: herbicidal effects by upland field foliage treatment
# Format: in vivo
# Parameters: scale not given here
# Conditions: 100 g active ingredient per 10 ares, evaluated 14th day after treatment
# Method in brief: (§3)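 Scoring used a standard effect scale on the 14th day post-treatment, with plants held in a greenhouse throughout. Foliar application was made to weeds raised from seed in sand-filled pots for 2 weeks.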
row,SMILES,Herbicidal effects Ec
1,CC(C)OCc1cc2c(-c3ccc(C(F)(F)F)n(C)c3=O)c(F)cc(Cl)c2o1 [Compound 4-33],5

# Test system: Diaitaria ciliaris (Di)
# Assay: as above
# Format: in vivo
# Parameters: scale not given here
# Conditions: 100 g active ingredient per 10 ares, evaluated 14th day after treatment
# Method in brief: as §3
row,SMILES,Herbicidal effects Di
1,CC(C)OCc1cc2c(-c3ccc(C(F)(F)F)n(C)c3=O)c(F)cc(Cl)c2o1 [Compound 4-33],5

# Test system: pale smartweed (Po)
# Assay: as above
# Format: in vivo
# Parameters: scale not given here
# Conditions: 100 g active ingredient per 10 ares, evaluated 14th day after treatment
# Method in brief: as §3
row,SMILES,Herbicidal effects Po
1,CC(C)OCc1cc2c(-c3ccc(C(F)(F)F)n(C)c3=O)c(F)cc(Cl)c2o1 [Compound 4-33],5

# Test system: common lambsquarters (Ch)
# Assay: as above
# Format: in vivo
# Parameters: scale not given here
# Conditions: 100 g active ingredient per 10 ares, evaluated 14th day after treatment
# Method in brief: as §3
row,SMILES,Herbicidal effects Ch
1,CC(C)OCc1cc2c(-c3ccc(C(F)(F)F)n(C)c3=O)c(F)cc(Cl)c2o1 [Compound 4-33],5

# Test system: rice flatsedge (Ci)
# Assay: as above
# Format: in vivo
# Parameters: scale not given here
# Conditions: 100 g active ingredient per 10 ares, evaluated 14th day after treatment
# Method in brief: as §3
row,SMILES,Herbicidal effects Ci
1,CC(C)OCc1cc2c(-c3ccc(C(F)(F)F)n(C)c3=O)c(F)cc(Cl)c2o1 [Compound 4-33],5

# Test system: slender amaranth (Am)
# Assay: as above
# Format: in vivo
# Parameters: scale not given here
# Conditions: 100 g active ingredient per 10 ares, evaluated 14th day after treatment
# Method in brief: as §3
row,SMILES,Herbicidal effects Am
1,CC(C)OCc1cc2c(-c3ccc(C(F)(F)F)n(C)c3=O)c(F)cc(Cl)c2o1 [Compound 4-33],5

# Test system: corn (Ze)
# Assay: Test Example 11: crop plant selectivity by upland field foliage treatment (corn), phytotoxicity
# Conditions: corn; foliage treatment; dose 1.6 g ai/10a; evaluated on 14th day after treatment; index per Table 47
# Protocol: (§4) (Test on Crop Plant Selectivity by Upland Field Foliage Treatment)
# (§5) In a plastic pot (surface area: 600 cm^2) filled with sand, corn (Ze), pale smartweed (Po), slender amaranth (Am), common lambsquarters (Ch) and China jute (Ab) were sown and cultured in a green house for 2 weeks. […] The plants were then cultured in a green house, and the evaluation of the herbicidal effects and phytotoxicity was conducted on the 14th day after the treatment in accordance with the standards as identified in Table 47.
row,SMILES,Phytotoxicity Ze
1,CC(C)OCc1cc2c(-c3ccc(C(F)(F)F)n(C)c3=O)c(F)cc(Cl)c2o1 [Compound 4-33],2

# Test system: wheat (Tr)
# Assay: Test Example 9: crop plant selectivity by upland field foliage treatment (wheat), phytotoxicity;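 also: grade of crop injury; 5 = at least 90%; 4 = 70 to 90%; 3 = 50 to 70%; 2 = 30 to 50%; 1 = 10 to 30%; 0 = under 10%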
# Conditions: dose 1.6 g ai/10a, 14th day after treatment
# Method in brief: as §1
row,SMILES,Phytotoxicity Tr
1,CC(C)OCc1cc2c(-c3ccc(C(F)(F)F)n(C)c3=O)c(F)cc(Cl)c2o1 [Compound 4-33],2

# Test system: pale smartweed (Po)
# Assay: Test Example 11: crop plant selectivity by upland field foliage treatment (corn), herbicidal effects
# Format: in vivo
# Parameters: scale not given here
# Conditions: pale smartweed; foliage treatment; dose 1.6 g ai/10a; evaluated on 14th day after treatment; index per Table 47
# Protocol: as §4, §5
row,SMILES,Herbicidal effects Po
1,CC(C)OCc1cc2c(-c3ccc(C(F)(F)F)n(C)c3=O)c(F)cc(Cl)c2o1 [Compound 4-33],5

# Test system: common lambsquarters (Ch)
# Assay: as above
# Format: in vivo
# Parameters: scale not given here
# Conditions: common lambsquarters; foliage treatment; dose 1.6 g ai/10a; evaluated on 14th day after treatment; index per Table 47
# Protocol: as §4, §5
row,SMILES,Herbicidal effects Ch
1,CC(C)OCc1cc2c(-c3ccc(C(F)(F)F)n(C)c3=O)c(F)cc(Cl)c2o1 [Compound 4-33],5

# Test system: China jute (Ab)
# Assay: as above
# Format: in vivo
# Parameters: scale not given here
# Conditions: China jute; foliage treatment; dose 1.6 g ai/10a; evaluated on 14th day after treatment; index per Table 47
# Protocol: as §4, §5
row,SMILES,Herbicidal effects Ab
1,CC(C)OCc1cc2c(-c3ccc(C(F)(F)F)n(C)c3=O)c(F)cc(Cl)c2o1 [Compound 4-33],5

# Test system: slender amaranth (Am)
# Assay: as above
# Format: in vivo
# Parameters: scale not given here
# Conditions: slender amaranth; foliage treatment; dose 1.6 g ai/10a; evaluated on 14th day after treatment; index per Table 47
# Protocol: as §4, §5
row,SMILES,Herbicidal effects Am
1,CC(C)OCc1cc2c(-c3ccc(C(F)(F)F)n(C)c3=O)c(F)cc(Cl)c2o1 [Compound 4-33],5
